Values quoted from earlier work, collected in patent US20130028868A1 (priority 2011, published 2013).
Read-outs that look alike come from different tables or passages of the source.

Key:
[1] = BDIX rats (50 rats); 3 weeks, 1 mg/kg/week
[2] = not given; remark: listed apart in the source
[3] = tested on: animal tissue culture
[4] = not given; remark: listed apart in the source
[5] = tested on: cells; conditions: in vitro experiments
[6] = by Cisplatin
[7] = in vivo

SMILES	deaths within 455 days after first time administration [1]	died from leukemia [1]	died from malignant tumor [1]	died from renal fibrosarcoma [1]	excreted along with urine (96 hours after treatment) [%˜45]	drug in human milk (reports)	marrow inhibition incidence ([2]; dosage amount≦100 mg/m2)	marrow inhibition incidence ([2]; dosage≧120 mg/m2)	chromosome aberration [3]	renal clearance of the drug (share) ([4]; in vivo)	protein binding ([4]; intravenous paclitaxel)	radiosensitization [5]	reduction of clearance of the drug [6]	incidence rate of serious neurotoxicity [7] [%]
N.N.[Cl][Pt][Cl] [Cisplatin]	33	12	13	1	25	drug detected in human milk	10˜20%	about 40%	causing chromosome aberration	–	–	–	–	–
CC(=O)O[C@H]1C(=O)[C@@]2(C)[C@H]([C@H](OC(=O)c3ccccc3)[C@]3(O)C[C@H](OC(=O)[C@H](O)[C@@H](NC(=O)c4ccccc4)c4ccccc4)C(C)=C1C3(C)C)[C@]1(OC(C)=O)CO[C@@H]1C[C@@H]2O [Paclitaxel]	–	–	–	–	–	–	–	–	–	1-8%	89%-98	significant radiosensitization	about ⅓	6
